Assays:
[1] = test system: human melanoma LOX; assay: Survival of nude mice implanted with human melanoma LOX; assay type: in vivo, human melanoma in male athymic Swiss nu/nu mouse; conditions: Mus musculus, ip, 24 h, 20 mg/kg, i.p. on day 1, 2, 3, 4, 8, 9; read-out: T/C (survival)
Method: LOX, a human melanoma cell line, grown subcutaneously in nude mice was excised, trypsinized to yield a single cell suspension using a metal grid with a […]. Red blood cells were lysed by incubation with 0.17 molar ammonium chloride at 4° C. for 20 minutes. Five million viable trypan blue negative cells made up in 0.1 ml of Dulbecco modified Eagles' medium (DME) were injected into the peritoneal cavity of a male athymic Swiss nu/nu mouse. The control group and each treatment group consisted of 5 to 10 mice. Treatment was commenced the following day by intraperitoneal injection.
Ten control mice received 0.25 ml of 2% dextrose on those days the treated groups were injected with the compounds of this invention. The compounds of the General Formulas. (1) to (6) used in this invention which were tested are listed in Table VIII below and the results obtained are shown in Table VIII and FIG. 1-6 of the accompanying drawings. T/C is the ratio, expressed as a percentage of the mean survival age of the treated group to the mean survival age of the untreated control group.

[2] = test system: human colon carcinoma CX-1; assay: Anti-human colon carcinoma CX-1 activity in nude mice, tumor inhibition; assay type: in vivo, human colon carcinoma in Swiss nu/nu mice; conditions: Mus musculus, ip, 24 h, 20 mg/kg, i.p. on day 1, 5, 11, 15, 20, 26, 34
Excerpt: Human colon carcinoma cell line CX-1 has been chosen by the National Cancer Institute as a mode for cancer drug screening (NCI Protocol 3C2H2). It was established in culture from the surgical explant of the primary colon adenocarcinoma of a person with no previous chemotherapy. The cultured CX-1 cells, upon subcutaneous injection, can grow readily in nude mice as a moderately- to well-differentiated human colon carcinoma. CEA is expressed as expected for differentiated colon carcinoma cells. Abundant keratin, consistent with epithelial origin, is present. Increased uptake and prolonged retention of delocalized lipophilic cations are observed.
Swiss nu/nu mice obtained from Taconic Farm were housed in a pathogen-free environment. Tumors subcutaneously passaged in nude mice were excised under sterile conditions and converted to a single cell suspension using a metal grid with a 0.4 mm mesh. Red blood cells were lysed by incubation with 0.17M ammonium chloride at 4° C. for 20 minutes. Cells were scored for viability with trypan blue. Viable CX-1 cells (2.5 million) made up in 0.1 ml of cell culture medium were injected subcutaneously into each nude mouse. The mice were randomly allocated into a control group (five mice) and a treatment group (five mice per group). The drug treatment was commenced the next day. Doses and schedules were developed empirically and were based mainly on information on LD50 and LD10 obtained from preliminary toxicity studies. The control group received an equivalent volume of hydroxylpropyl-β-cyclodextrin-5% glucose solution.
The pharmaceutical compositions tested comprised solutions in 5% glucose subjected to sonication at concentrations of 1 mg/ml. Those compounds which were not completely dissolved by this procedure were dissolved in hydroxypropyl-β-cyclodextrin using the following method. Hydroxypropyl-β-cyclodextrin (45 g) was mixed with 100 ml of sterilized, double distilled water and stirred for four hours. Each of the compounds to be tested (20 mg) was mixed with 10 ml of hydroxypropyl-β-cyclodextrin solution and sonicated for 60 minutes in the dark. This solution was then diluted in 5% glucose to yield a final compound concentration of 0.5 mg/ml, and further sonicated for 60 minutes in the dark to assure that the compound was completely dissolved.
When the growth of tumors in the control group reached the exponential phase and the size of the tumor was palpable (usually 20 to 30 days after tumor implantation), the experiments were terminated. Tumors in each mouse were excised and weighed using an analytical balance. Total tumor weight in each group from five mice was calculated. Per cent tumor inhibition between the treated group and the control group was then calculated for each group.

[3] = test system: normal monkey kidney epithelial cell line CV-1; assay: Colony formation assay, normal monkey kidney epithelial cells CV-1; conditions: Primates, Epithelial cell, read-out: CV-1 (IC50), Table III; 24 h treatment, colony count after 7 to 10 days;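 also: colonies visualized by crystal violet staining, incubation at 37 °C, IC50 relative to untreated wells given culture medium alone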
Method: Human colon carcinoma cell line CX-1 or normal monkey kidney epithelial cell line CV-1 was chosen as representatives of cancer cells and normal cells, respectively. […] CX-1 cells (2,000 cells/well) and CV-1 cells (1,000 cells/well) were plated in 24-well plastic culture plates. […] The control received culture media only. Cells were treated with compounds of General Formulas (1) to (6) at 37° C. for 24 hours. After rinsing with fresh culture medium three times, the cells were further incubated at 37° C. for 7 to 10 days. Cell colonies were fixed and stained with 2% crystal violet in 70% ethanol for 10 minutes and rinsed in water. […] The selectivity is defined as the ratio of IC50 for CV-1 and IC50 for CX-1.

[4] = test system: human colon carcinoma cell line CX-1; assay: Colony formation assay, human colon carcinoma CX-1; assay type: cell-based
[5] = test system: human ovarian carcinoma OVCAR-3; assay: Survival of nude mice implanted with human ovarian carcinoma OVCAR-3; assay type: in vivo, human ovarian carcinoma in athymic Swiss nu/nu mice; conditions: 20 mg/kg, i.p. on day 1, 5, 9, 14, 23, 48
Method: A human ovarian carcinoma cell line, OVCAR-3, was used. Ten million cells of this cell line were injected IP into ten athymic Swiss nu/nu mice. Ten mice into which these cancer cells had been injected were selected as a control group and received in equal volume of 5% dextrose as that of the treated group. The compounds of the General Formulas (1) to (6) which were tested and the results obtained are shown in Table IX below and in FIG. 7-9 of the accompanying drawings.

Question: What does the source list for `CCN1C(=CC=c2sc(=Cc3cc[n+](CC)c4ccccc34)n(CC)c2=O)C=Cc2ccccc21` [Compound 247]?
Answer: response vs control in vivo at 20 mg/kg [1]: 227%; inhibition in vivo at 20 mg/kg [2]: 75%; IC50 [3]: 20 µg/mL; IC50 ([4]; Homo sapiens, Colon carcinoma cell, read-out: CX-1 (IC50), Table III, 24 h treatment, colony count after 7 to 10 days): 0.1 µg/mL; Selectivity (ratio of IC50 for CV-1 and IC50 for CX-1) ([4]; Table III, CV-1/CX-1): 200; T/C (survival) [5]: > 378%

— patent US5861424A, “Composition and method for treating cancer” (priority 1995, dated 1999)
